According to PubChem BioAssay (NCI):
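These data come from cells grown in 96-well plates and exposed to compound for 48 hours at five concentrations. GI50 = concentration required for 50% inhibition of growth. TGI denotes the concentration required for complete inhibition of growth.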

Tests used:
Assay in all cases: NCI-60 cell line screen, 48 h
T-47D breast = test system: T-47D breast
SR leukemia = test system: SR leukemia
SK-MEL-2 melanoma = test system: SK-MEL-2 melanoma
NCI/ADR-RES ovarian = test system: NCI/ADR-RES ovarian
MCF7 breast = test system: MCF7 breast
M14 melanoma = test system: M14 melanoma
ACHN renal = test system: ACHN renal
CCRF-CEM leukemia = test system: CCRF-CEM leukemia
SF-295 CNS = test system: SF-295 CNS
SW-620 colon = test system: SW-620 colon
SK-OV-3 ovarian = test system: SK-OV-3 ovarian
EKVX NSCLC = test system: EKVX NSCLC

| Compound | TGI (T-47D breast) [µM] | TGI (SR leukemia) [µM] | TGI (SK-MEL-2 melanoma) [µM] | TGI (NCI/ADR-RES ovarian) [µM] | TGI (MCF7 breast) [µM] | TGI (M14 melanoma) [µM] | TGI (ACHN renal) [µM] | TGI (CCRF-CEM leukemia) [µM] | TGI (SF-295 CNS) [µM] | TGI (SW-620 colon) [µM] | TGI (SK-OV-3 ovarian) [µM] | TGI (EKVX NSCLC) [µM] | GI50 (NCI/ADR-RES ovarian) [µM] | GI50 (EKVX NSCLC) [µM] |
| --- | --- | --- | --- | --- | --- | --- | --- | --- | --- | --- | --- | --- | --- | --- |
| N#CC1=C(S)N(C2OC(CO)C(O)C(O)C2O)C(c2ccccc2)=CC1c1cccs1 (stereo unspecified) | 65.7 | > 100 | 50.2 | > 100 | 54.9 | > 100 | 40.8 | > 100 | 34.8 | 65 |  |  |  |  |
| Cc1cc(=O)n2nc(CSc3n[nH]c(=S)s3)sc2n1 | > 100 | > 100 | > 100 | > 100 | > 100 | > 100 | > 100 | > 100 | > 100 | > 100 | > 100 | > 100 |  |  |
| CC1(C)CN=C(Nc2ccc(F)c(Cl)c2)S1 | > 100 | > 100 | > 100 | > 100 | > 100 | > 100 | > 100 | > 100 | > 100 | > 100 | > 100 | > 100 |  |  |
| C=CCOC1OC(CS(=O)(=O)O)C(OC(C)=O)C(OC(C)=O)C1OC(C)=O (stereo unspecified) | > 100 | > 100 | > 100 | > 100 | > 100 | > 100 |  | > 100 | > 100 | > 100 | > 100 |  |  |  |
| FC(F)(F)C1(c2ccccc2)SCc2nc3ccccc3n21 (stereo unspecified) | > 100 | > 100 | > 100 | > 100 | > 100 | > 100 | > 100 | > 100 | > 100 | > 100 | > 100 | > 100 |  |  |
| COc1ccc(Br)c(C=Nc2cccc3cc(OC)c(OC)cc23)c1 | > 100 | 11.6 | > 100 | > 77.8 | > 100 | > 58.1 | > 73.8 | > 40.5 | > 100 | 51.1 | > 100 | > 100 |  |  |
| COC(=O)[C@]1(Cc2ccc3ccccc3c2)CCCCCCN1C(=O)c1ccccc1 | > 54.3 | > 100 | 25.9 | > 49.7 | > 49.1 | > 52.7 | > 73.2 | > 53.7 | > 44.5 | > 60.3 | > 89.8 | > 50.9 |  |  |
| CCNC1=C(NC(=O)CCl)C(=O)c2ccccc2C1=O | 44.7 | 80.3 |  | 44 | 47.4 | 42.6 | 31.9 | 58.1 | 36.9 | 74.6 | > 10 | 29.6 |  |  |
| CSS(C)(=O)=O | 57.2 | 38.6 | 60.2 | > 100 | > 100 | 74.7 | 56.9 | > 100 | 54.5 | > 100 |  | 66.2 |  |  |
| ClCCc1ccccc1CC1=NCCc2ccccc21 | > 100 | > 100 | 39.1 | 75.6 | > 100 | 71.5 | > 100 | > 100 | > 100 | > 100 | > 100 | > 100 |  |  |
| CCOc1cc(/C=C2\N=C(c3ccccc3)N(c3nc4ccccc4s3)C2=O)ccc1O | > 100 | > 100 | 62.1 | 67.8 | > 100 | > 100 | > 100 | > 100 | > 100 | > 100 | > 100 | > 100 |  |  |
| CC1(C)CC[C@]2(C(=O)O)CC[C@]3(C)C(=CC[C@@H]4[C@@]5(C)CC[C@H](OC6OC(CO)C(O)C(O)C6O)C(C)(C)[C@@H]5CC[C@]43C)[C@@H]2C1 (stereo partly specified) | 3.55 | 5.53 | 3.15 | 22.9 | 3.91 | 3.12 | 3.04 | 6.36 | 3.2 | 3.51 | 3.16 |  |  |  |
| O=C1CSC(c2cccc(Oc3ccccc3)c2)N1c1cccc(Cl)c1Cl (stereo unspecified) | > 100 | 53.8 | 34.9 | 59.9 | 32.8 | > 100 | 47.9 | > 100 | > 100 | > 100 | > 100 | 99.3 |  |  |
| COc1c2occc2cc2ccc(=O)oc12 | > 100 | > 100 | > 100 | > 100 | > 100 | > 100 | > 100 | > 100 | > 100 | > 100 | > 100 | > 100 | > 100 | 96.9 |
| COc1cc(C2SCC(=O)N2NC(=O)c2ccc(NC(C)=O)cc2OC)ccc1O (stereo unspecified) | > 100 | > 100 | 68.6 | > 100 | > 100 | > 100 | > 100 | > 100 | 47 | > 100 | 26.7 | > 100 |  |  |
| CCSc1nc(C)nc2c1sc1nc3ccccc3n12 | > 100 | > 100 | > 100 | > 100 | > 100 | > 100 | > 100 | > 100 | > 100 | > 100 | > 100 | > 100 |  |  |
| Cc1nn(C(=O)c2ccncc2)c2c1C(c1ccc([N+](=O)[O-])cc1)SC(N)=N2 (stereo unspecified) | > 100 | > 100 | > 100 | > 100 | > 100 | > 100 | > 100 | > 100 | > 100 | > 100 | > 100 | > 100 |  |  |
| O=C1c2cc([N+](=O)[O-])sc2C(=O)c2cc([N+](=O)[O-])sc21 | 10.8 | 6 | 21.4 | 11.3 | 9.92 | 9.25 | 10.1 | > 19.8 | 23.9 | 3.37 | 25.2 | 7.78 |  |  |
